Test results as given in the supplement of paper PMC10307832.

Experiments:
Test in all cases: relative viability (nuclei count vs DMSO), 5 days (fraction); higher = more cells survive
BI-D1870 + OSI-027 = compound: CC(C)CCN1c2nc(Nc3cc(F)c(O)c(F)c3)ncc2N(C)C(=O)C1C [BI-D1870] + COc1cccc2cc(-c3nc([C@H]4CC[C@H](C(=O)O)CC4)n4ncnc(N)c34)[nH]c12 [OSI-027] (partner 0.5 µM)
Outline: (§1)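 Nuclei were stained with Hoechst during a one-step fixation (final 0.05% Triton X-100, 1% formaldehyde, 1 ug/ml Hoechst) carried out 5 days after dosing, then counted on 4× images. The cells, lung cancer lines in 1536-well plates, had been dosed by pin tool the day after seeding with one drug alone or a fixed anchor-drug dose plus five library-drug doses (not always all listed) in √10 steps. Relative viability is the nuclei count in treated wells divided by that in vehicle wells, and each value is the median of duplicate plates.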

BI-D1870 + Linsitinib = compound: CC(C)CCN1c2nc(Nc3cc(F)c(O)c(F)c3)ncc2N(C)C(=O)C1C [BI-D1870] + C[C@]1(O)C[C@@H](c2nc(-c3ccc4ccc(-c5ccccc5)nc4c3)c3c(N)nccn32)C1 [Linsitinib] (partner 1 µM)
Outline: as §1

BI-D1870 + Phenformin = compound: CC(C)CCN1c2nc(Nc3cc(F)c(O)c(F)c3)ncc2N(C)C(=O)C1C [BI-D1870] + N=C(N)NC(=N)NCCc1ccccc1 [Phenformin] (partner 250 µM)
Outline: as §1

Zebularine + Luminespib = compound: O=c1ncccn1[C@@H]1O[C@H](CO)[C@@H](O)[C@H]1O [Zebularine] + CCNC(=O)c1noc(-c2cc(C(C)C)c(O)cc2O)c1-c1ccc(CN2CCOCC2)cc1 [Luminespib] (partner 0.01 µM)
Outline: as §1

Cell Line | relative viability (BI-D1870 + OSI-027; first compound 0.04 µM) | relative viability (BI-D1870 + OSI-027; first compound 0.1265 µM) | relative viability (BI-D1870 + OSI-027; first compound 0.4 µM) | relative viability (BI-D1870 + OSI-027; first compound 1.265 µM) | relative viability (BI-D1870 + OSI-027; first compound 4 µM) | relative viability (BI-D1870 + Linsitinib; first compound 0.04 µM) | relative viability (BI-D1870 + Linsitinib; first compound 0.1265 µM) | relative viability (BI-D1870 + Linsitinib; first compound 0.4 µM) | relative viability (BI-D1870 + Linsitinib; first compound 1.265 µM) | relative viability (BI-D1870 + Linsitinib; first compound 4 µM) | relative viability (BI-D1870 + Phenformin; first compound 0.04 µM) | relative viability (BI-D1870 + Phenformin; first compound 0.1265 µM) | relative viability (BI-D1870 + Phenformin; first compound 0.4 µM) | relative viability (BI-D1870 + Phenformin; first compound 1.265 µM) | relative viability (BI-D1870 + Phenformin; first compound 4 µM) | relative viability (Zebularine + Luminespib; first compound 1 µM) | relative viability (Zebularine + Luminespib; first compound 3.162 µM) | relative viability (Zebularine + Luminespib; first compound 10 µM) | relative viability (Zebularine + Luminespib; first compound 31.62 µM) | relative viability (Zebularine + Luminespib; first compound 100 µM)
HCC-44 | 0.751 | 0.5 | 0.642 | 0.464 | 0.383 | 0.718 | 0.667 | 0.679 | 0.712 | 0.634 | 0.315 | 0.211 | 0.186 | 0.256 | 0.232 | 1.17 | 1.15 | 0.746 | 0.374 | 0.388
HCC-827 | 0.74 | 0.738 | 0.71 | 0.76 | 0.711 | 0.992 | 0.959 | 0.982 | 0.977 | 0.895 | 0.436 | 0.38 | 0.375 | 0.436 | 0.366 | 0.756 | 0.909 | 0.353 | 0.582 | 0.257
NCI-H1623 | 0.389 | 0.439 | 0.457 | 0.396 | 0.376 | – | – | – | – | – | 0.574 | 0.494 | 0.562 | 0.572 | 0.542 | 0.629 | 0.503 | 0.592 | 0.468 | 0.293
NCI-H2347 | 0.422 | 0.458 | 0.374 | 0.476 | 0.478 | 1.07 | 0.965 | 0.962 | 1.03 | 0.899 | 0.67 | 0.377 | 0.405 | 0.443 | 0.406 | 0.504 | 0.418 | 0.293 | 0.213 | 0.28
PC-14 | 0.995 | 0.626 | 0.747 | 0.773 | 0.605 | 1.04 | 0.919 | 0.908 | 0.91 | 0.633 | 0.669 | 0.521 | 0.587 | 0.627 | 0.447 | 0.107 | 0.134 | 0.158 | 0.131 | 0.157
NCI-H1651 | 0.738 | 0.608 | 0.668 | 0.753 | 0.63 | 1.09 | 0.907 | 0.962 | 0.922 | 0.752 | 0.389 | 0.315 | 0.287 | 0.295 | 0.322 | 0.986 | 0.831 | 0.688 | 0.738 | 0.519
HARA | 0.616 | 0.417 | 0.503 | 0.608 | 0.421 | 1.1 | 0.897 | 1.03 | 1.09 | 0.873 | 0.513 | 0.455 | 0.475 | 0.506 | 0.402 | 0.86 | – | – | 0.833 | 0.445
NCI-H1650 | 0.653 | 0.591 | 0.593 | 0.68 | 0.331 | – | – | – | – | – | 0.368 | 0.362 | 0.358 | 0.414 | 0.304 | 0.188 | 0.222 | 0.176 | 0.234 | 0.225
NCI-H1395 | 0.717 | 0.639 | 0.658 | 0.616 | 0.593 | 1.11 | 0.922 | 1.14 | 1.2 | 0.85 | 0.451 | 0.418 | 0.464 | 0.456 | 0.427 | 0.564 | 0.666 | 0.456 | 0.536 | 0.372
LU99A | 0.295 | 0.265 | 0.288 | 0.308 | 0.287 | 0.617 | 0.435 | 0.519 | 0.48 | 0.496 | 1.05 | 0.804 | 0.799 | 0.634 | 0.72 | 0.221 | 0.269 | 0.166 | 0.188 | 0.146
NCI-H1355 | 0.464 | 0.36 | 0.361 | 0.425 | 0.308 | 0.842 | 0.81 | 0.788 | 0.788 | 0.75 | 0.494 | 0.418 | 0.44 | 0.46 | 0.38 | 0.93 | 0.654 | 0.595 | 0.452 | 0.29
HCC-78 | 0.629 | 0.346 | 0.401 | 0.427 | 0.309 | 0.54 | 0.547 | 0.492 | 0.533 | 0.406 | 0.72 | 0.796 | 0.795 | 0.822 | 0.593 | – | – | – | – | –
NCI-H1563 | 0.79 | 0.814 | 0.673 | 0.801 | 0.709 | 1.4 | 1.1 | 1.13 | 1.07 | 1.19 | 0.669 | 0.651 | 0.643 | 0.682 | 0.728 | 0.519 | 0.517 | 0.518 | 0.521 | 0.514
HCC-15 | 0.732 | 0.611 | 0.638 | 0.765 | 0.396 | 0.89 | 0.751 | 0.772 | 0.92 | 0.713 | 0.56 | 0.468 | 0.417 | 0.426 | 0.394 | 0.297 | 0.337 | 0.211 | 0.34 | 0.216
EKVX | 0.68 | 0.608 | 0.64 | 0.776 | 0.641 | 1.14 | 0.933 | 1 | 1.05 | 0.893 | 0.243 | 0.214 | 0.23 | 0.21 | 0.18 | 0.863 | 0.847 | 0.867 | 0.807 | 0.653
NCI-H2087 | 0.733 | 0.516 | 0.58 | 0.638 | 0.392 | 1.09 | 1.02 | 1.17 | 1.01 | 0.699 | 0.512 | 0.532 | 0.486 | 0.536 | 0.459 | 0.19 | 0.17 | 0.143 | 0.176 | 0.141
LK-2 | 0.21 | 0.259 | 0.198 | 0.197 | 0.148 | 0.616 | 0.518 | 0.512 | 0.497 | 0.457 | 0.631 | 0.437 | 0.451 | 0.545 | 0.217 | 0.17 | 0.176 | 0.213 | 0.182 | 0.176
